One may read the IC50 as the midpoint of a concentration-inhibition curve.

Counter-ions that a name gives are not always drawn.

The target of this assay is T1, N-type calcium channel (NTCC) (Homo sapiens, UniProt Q00975).
T1 construct: endogenous in cells; host or cells: differentiated IMR32 cells (ATCC)
T1 sequence (Q00975 whole entry): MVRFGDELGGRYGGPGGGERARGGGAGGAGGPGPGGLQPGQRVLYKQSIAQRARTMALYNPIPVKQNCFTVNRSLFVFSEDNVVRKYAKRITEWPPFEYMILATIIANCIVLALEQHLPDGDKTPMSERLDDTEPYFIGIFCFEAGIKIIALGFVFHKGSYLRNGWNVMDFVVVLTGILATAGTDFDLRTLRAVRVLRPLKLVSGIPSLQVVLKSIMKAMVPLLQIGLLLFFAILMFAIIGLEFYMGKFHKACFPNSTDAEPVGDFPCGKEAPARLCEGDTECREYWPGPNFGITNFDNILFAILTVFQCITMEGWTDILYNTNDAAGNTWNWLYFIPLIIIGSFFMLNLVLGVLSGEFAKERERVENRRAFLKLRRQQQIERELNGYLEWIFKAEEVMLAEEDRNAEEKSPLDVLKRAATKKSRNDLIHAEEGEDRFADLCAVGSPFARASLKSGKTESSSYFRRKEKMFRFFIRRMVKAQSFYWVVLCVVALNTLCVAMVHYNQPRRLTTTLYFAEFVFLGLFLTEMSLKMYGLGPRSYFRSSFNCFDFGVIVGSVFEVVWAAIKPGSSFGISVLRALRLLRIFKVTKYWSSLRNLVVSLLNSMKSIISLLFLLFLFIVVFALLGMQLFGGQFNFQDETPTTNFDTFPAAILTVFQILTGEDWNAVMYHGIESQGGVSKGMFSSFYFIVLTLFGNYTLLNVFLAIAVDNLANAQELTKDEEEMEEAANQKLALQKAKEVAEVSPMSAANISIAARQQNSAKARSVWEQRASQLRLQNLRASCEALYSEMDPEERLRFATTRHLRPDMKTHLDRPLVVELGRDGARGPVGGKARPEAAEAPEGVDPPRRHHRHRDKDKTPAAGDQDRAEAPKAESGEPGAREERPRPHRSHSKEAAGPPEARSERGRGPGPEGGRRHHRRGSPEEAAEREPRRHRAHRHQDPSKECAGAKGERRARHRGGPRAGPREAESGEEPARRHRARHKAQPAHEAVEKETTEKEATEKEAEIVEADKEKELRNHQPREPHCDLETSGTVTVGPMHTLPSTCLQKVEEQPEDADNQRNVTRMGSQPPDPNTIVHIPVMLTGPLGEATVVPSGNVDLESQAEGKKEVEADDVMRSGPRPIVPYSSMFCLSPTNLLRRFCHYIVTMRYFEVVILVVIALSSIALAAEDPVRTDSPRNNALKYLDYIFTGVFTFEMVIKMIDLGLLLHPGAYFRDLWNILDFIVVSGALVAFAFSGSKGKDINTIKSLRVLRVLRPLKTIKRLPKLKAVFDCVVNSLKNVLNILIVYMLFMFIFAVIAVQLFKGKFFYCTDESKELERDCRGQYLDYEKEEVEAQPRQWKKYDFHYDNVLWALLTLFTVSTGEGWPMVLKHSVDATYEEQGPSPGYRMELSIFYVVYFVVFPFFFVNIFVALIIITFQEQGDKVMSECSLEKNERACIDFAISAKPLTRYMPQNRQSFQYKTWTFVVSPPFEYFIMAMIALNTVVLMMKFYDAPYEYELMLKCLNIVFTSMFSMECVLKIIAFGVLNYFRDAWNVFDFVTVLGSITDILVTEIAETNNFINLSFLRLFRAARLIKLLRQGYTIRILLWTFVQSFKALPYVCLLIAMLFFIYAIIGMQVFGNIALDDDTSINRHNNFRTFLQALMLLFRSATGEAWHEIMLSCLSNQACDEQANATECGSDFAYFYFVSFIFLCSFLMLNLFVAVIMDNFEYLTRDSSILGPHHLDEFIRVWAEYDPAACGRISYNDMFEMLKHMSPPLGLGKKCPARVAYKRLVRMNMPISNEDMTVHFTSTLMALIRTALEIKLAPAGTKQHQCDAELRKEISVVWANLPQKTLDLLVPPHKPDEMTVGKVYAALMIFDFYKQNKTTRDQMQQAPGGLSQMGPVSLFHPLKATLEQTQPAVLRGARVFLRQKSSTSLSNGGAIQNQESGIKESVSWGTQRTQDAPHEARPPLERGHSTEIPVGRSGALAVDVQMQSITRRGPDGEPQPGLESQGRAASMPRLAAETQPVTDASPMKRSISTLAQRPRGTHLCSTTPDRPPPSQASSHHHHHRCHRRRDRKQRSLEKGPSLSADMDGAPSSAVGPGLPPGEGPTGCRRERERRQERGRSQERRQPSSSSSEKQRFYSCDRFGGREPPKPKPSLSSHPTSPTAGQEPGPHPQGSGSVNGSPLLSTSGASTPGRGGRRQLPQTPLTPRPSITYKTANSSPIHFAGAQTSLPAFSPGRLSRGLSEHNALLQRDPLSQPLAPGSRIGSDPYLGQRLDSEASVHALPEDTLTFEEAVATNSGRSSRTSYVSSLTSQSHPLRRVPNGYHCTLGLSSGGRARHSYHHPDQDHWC
T1 sequence (P54284 whole entry partner): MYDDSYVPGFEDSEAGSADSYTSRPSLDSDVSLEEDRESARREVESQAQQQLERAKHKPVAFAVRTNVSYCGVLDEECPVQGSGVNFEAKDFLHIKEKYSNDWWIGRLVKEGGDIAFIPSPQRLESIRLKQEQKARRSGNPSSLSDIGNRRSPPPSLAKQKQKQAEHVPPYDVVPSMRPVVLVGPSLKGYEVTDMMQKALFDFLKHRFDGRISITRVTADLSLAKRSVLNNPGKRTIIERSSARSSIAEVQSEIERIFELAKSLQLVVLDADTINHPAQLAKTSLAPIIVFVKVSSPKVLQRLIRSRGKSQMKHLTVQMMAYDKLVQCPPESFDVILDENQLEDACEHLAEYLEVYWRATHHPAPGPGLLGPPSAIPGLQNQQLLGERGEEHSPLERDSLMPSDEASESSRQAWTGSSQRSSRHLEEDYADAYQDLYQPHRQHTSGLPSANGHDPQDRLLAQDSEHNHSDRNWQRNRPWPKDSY
T1 sequence (P54289 25-956 partner limits assumed): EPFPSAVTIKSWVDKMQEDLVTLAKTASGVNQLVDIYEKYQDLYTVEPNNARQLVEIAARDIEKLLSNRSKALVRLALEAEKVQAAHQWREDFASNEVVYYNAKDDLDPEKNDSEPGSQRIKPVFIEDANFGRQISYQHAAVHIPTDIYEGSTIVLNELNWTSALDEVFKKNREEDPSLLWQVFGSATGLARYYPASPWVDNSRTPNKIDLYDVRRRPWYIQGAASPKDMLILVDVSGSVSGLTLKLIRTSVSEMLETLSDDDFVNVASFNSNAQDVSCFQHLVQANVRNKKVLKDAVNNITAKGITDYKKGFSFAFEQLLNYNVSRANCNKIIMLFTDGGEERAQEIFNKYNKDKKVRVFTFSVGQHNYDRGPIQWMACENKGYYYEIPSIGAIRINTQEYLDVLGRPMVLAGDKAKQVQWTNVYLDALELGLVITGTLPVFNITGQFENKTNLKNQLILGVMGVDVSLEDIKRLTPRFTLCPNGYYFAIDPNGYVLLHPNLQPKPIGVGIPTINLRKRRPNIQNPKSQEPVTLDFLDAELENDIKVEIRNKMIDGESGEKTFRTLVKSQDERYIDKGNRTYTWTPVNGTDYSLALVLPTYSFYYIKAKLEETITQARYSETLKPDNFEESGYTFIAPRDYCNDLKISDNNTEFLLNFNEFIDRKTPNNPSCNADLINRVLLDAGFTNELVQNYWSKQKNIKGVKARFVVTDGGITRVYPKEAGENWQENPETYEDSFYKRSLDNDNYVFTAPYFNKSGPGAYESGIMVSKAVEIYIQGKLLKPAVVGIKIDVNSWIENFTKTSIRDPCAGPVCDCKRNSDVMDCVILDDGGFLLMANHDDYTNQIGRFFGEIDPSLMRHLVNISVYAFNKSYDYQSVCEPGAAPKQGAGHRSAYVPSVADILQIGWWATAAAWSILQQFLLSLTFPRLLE
T1 sequence (P54289 957-1103 partner limits assumed): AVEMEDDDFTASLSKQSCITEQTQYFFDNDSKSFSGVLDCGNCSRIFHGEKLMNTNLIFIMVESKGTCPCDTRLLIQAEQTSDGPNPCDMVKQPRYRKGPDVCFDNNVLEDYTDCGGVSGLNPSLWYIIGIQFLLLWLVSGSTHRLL
In words: FLIPR calcium mobilization (and/or electrophysiological) assay for N-type calcium channel. It is filed as cell-based. The conditions noted are these: calcium mobilization and/or electrophysiological in vitro assay; differentiated IMR32 cells, 90 mM KCl, 5 μM nitrendipine. Here is the method: Unless noted otherwise, cell culture reagents were purchased from Life Technologies of Rockville, Md. IMR32 cells (American Type Culture Collection, ATCC, Manassas, Va.) were routinely cultured in growth medium consisting of minimum essential medium containing 10% fetal bovine serum (FBS, Hyclone, Logan, Utah), 100 U/mL penicillin, 100 μg/mL streptomycin, 2 mM L-glutamine, 1 mM sodium pyruvate, and 1×MEM non-essential amino acids. 80-90% confluent flasks of cells were differentiated using the following differentiation medium: Growth medium plus 1 mM dibutyryl cyclic AMP (Sigma, St. Louis, Mo.), and 2.5 μM bromodeoxyuridine (Sigma). Cells were differentiated for 8 days by replacing differentiation medium every 2-3 days.
One day prior to performing this assay, differentiated IMR32 cells were treated with 1× CellStripper, and seeded on poly-D-lysine-coated 96-well clear-bottom black plates (Becton Dickinson, Franklin Lakes, N.J.) at 200,000 cells/well. On the day of the assay, the cell plates were washed with IMR32 buffer (127 mM NaCl, 1 mM KCl, 2 mM MgCl2, 700 μM NaH2PO4, 5 mM CaCl2, 5 mM NaHCO3, 8 mM HEPES, 10 mM glucose, pH 7.4), then pre-stimulated with KCl and loaded as follows: 0.05 mL of IMR32 buffer, 0.05 mL of each compound tested diluted in IMR32 buffer containing 20 μM nitrendipine (Sigma), and 0.1 mL KCl dissolved in IMR32 buffer, plus Fluo-4 were added (3 μM final concentration, Molecular Probes, Eugene, Oreg.). Final test compound concentrations ranged from about 846 pM to about 17 μM, final nitrendipine concentration was 5 μM, and final KCl concentration was 90 mM. After 1 hour, the cells were washed twice with 0.05 mL of each compound tested in nitrendipine-containing IMR32 buffer (no KCl or Fluo-4), and then replaced with 0.1 mL of each compound tested in nitrendipine-containing IMR32 buffer. Plates were then transferred to a Fluorimetric Imaging Plate Reader (FLIPR^96, Molecular Devices, Inc., Sunnyvale, Calif.) for assay. The FLIPR measured basal Fluo-4 fluorescence for 315 seconds (i.e., 5 minutes and 15 seconds), then added 0.1 mL KCl agonist dissolved in IMR32 buffer and measured fluorescence for another 45 seconds. Final test compound concentrations on the cells after FLIPR read ranged from about 846 pM to about 17 μM, final nitrendipine concentration was 5 μM, and final KCl concentration was 90 mM. Data were collected over the entire time course and analyzed using Excel, Graph Pad Prism (version 3.02, Graph Pad, San Diego, Calif.), or Activity Base (version 5.1, IDBS, Parsippany, N.J.) software.
N-type calcium channel expressing HEK-293 cells were created in two stages. Stage 1 was created as follows. The rat α1b, and β3 cDNA expression constructs (2.5 μg each) were co-transfected into human embryonic kidney (HEK-293) cells by Lipofectamine Plus reagent (Invitrogen), as per manufacturer's instructions. 24 hours later, cells were split in limiting dilution into multiple 96-well plates in selection media containing 20 μg/mL blasticidin and 500 μg/mL geneticin, and incubated for 3 weeks at 37° C., 5% CO2, 95% humidity. Plates containing ≦1 clone per well were cultured until wells positive for single clones were confluent. Individual clones were then arrayed into columns of a destination 96-well plate, and partly split into 6-well plates for culture maintenance. Array plates were washed once with IMR32 buffer and cells loaded for 1 hour with 0.1 mL of IMR32 buffer containing Fluo-4 (3 μM final concentration, Molecular Probes). Then they were washed twice with 0.1 mL of IMR32 buffer, and replaced with 0.1 mL IMR32 buffer. Plates were then transferred to a FLIPR^96 for assay. The FLIPR measured basal Fluo-4 fluorescence for 315 seconds, then added 0.1 mL KCl agonist dissolved in IMR32 buffer and measured fluorescence for another 45 seconds. Final KCl concentration was 90 mM. Data were collected over the entire time course and analyzed using Excel, Graph Pad Prism, or Activity Base software. […]
On to `CN[C@@H](CC(C)C)C(=O)N1CCC(N(CCO)S(=O)(=O)c2cccc(C(F)(F)F)c2)CC1` [(2S) N-(2-Hydroxyethyl)-N-[1-(4-methyl-2-methylamino-pentanoyl)piperidin-4-yl]-3-trifluoromethylbenzenesulfonamide hydrochloride], for which the IC50 was 2.23 µM.

For the molecule `CN[C@@H](CC(C)C)C(=O)N1CCC(N(CCOC)S(=O)(=O)c2cccc(C(F)(F)F)c2)CC1` [(2S) N-(2-methoxyethyl)-N-[1-(4-methyl-2-methylaminopentanoyl)-piperidin-4-yl]-3-trifluoromethylbenzenesulfonamide], the IC50 worked out at 1.22 µM.

Turning to `CN[C@@H](CC(C)C)C(=O)N1CCC(N(C2CCCC2)S(=O)(=O)c2cccc(C(F)(F)F)c2)CC1` [(2S) N-Cyclopentyl-N-[1-(4-methyl-2-methylamino-pentanoyl)piperidin-4-yl]-3-trifluoromethylbenzenesulfonamide fumarate], the IC50 was found to be 1.56 µM.

In the case of `CN[C@@H](CC(C)C)C(=O)N1CCC(N(C2CC2)S(=O)(=O)c2cccc(OC(F)F)c2)CC1` [(2S) N-Cyclopropyl-N-[1-(4-methyl-2-methylaminopentanoyl)-piperidin-4-yl]-3-difluoromethoxybenzenesulfonamide], the IC50 is 2.44 µM.

As to `CN[C@@H](CC(C)C)C(=O)N1CCC(N(CC2CC2)S(=O)(=O)c2cccc(C(F)(F)F)c2)CC1` [(2S) N-Cyclopropylmethyl-N-[1-(4-methyl-2-methylamino-pentanoyl)piperidin-4-yl]-3-trifluoromethylbenzenesulfonamide fumarate], the IC50 was found to be 1.31 µM.

With `CN[C@@H](CC(C)C)C(=O)N1CCC(N(C2CCOC2)S(=O)(=O)c2cccc(C(F)(F)F)c2)CC1` (stereo partly drawn) [(2S) N-[1-(4-Methyl-2-methylaminopentanoyl)piperidin-4-yl]-N-(tetrahydrofuran-3-yl)-3-trifluoromethylbenzenesulfonamide fumarate], the half-maximal inhibitory concentration (IC50) turned out to be 1.84 µM.

With `CN[C@@H](CC(C)C)C(=O)N1CCC(N(C[C@@H]2CCCO2)S(=O)(=O)c2cccc(C(F)(F)F)c2)CC1` [(2S) N-[1-(4-methyl-2-methylaminopentanoyl)piperidin-4-yl]-N-(tetrahydrofuran-2-yl)methyl-3-trifluoromethylbenzenesulfonamide], the IC50 amounted to 5.06 µM.

Regarding `CN[C@@H](CC(C)C)C(=O)N1CCC(N(C2CC2)S(=O)(=O)c2cccc(Cl)c2)CC1` [(2S) N-cyclopropyl-N-[1-(4-methyl-2-methylaminopentanoyl)-piperidin-4-yl]-3-chlorobenzenesulfonamide], the IC50 came to 2.63 µM.

For the molecule `CN[C@@H](CC(C)C)C(=O)N1CCC(N(C2CC2)S(=O)(=O)c2cccc(C#N)c2)CC1` [(2S) N-cyclopropyl-N-[1-(4-methyl-2-methylaminopentanoyl)-piperidin-4-yl]-3-cyanobenzenesulfonamide], the IC50 was 4.27 µM.

As for `CN[C@@H](CC(C)C)C(=O)N1CCC(N(C2CC2)S(=O)(=O)c2cccc(F)c2)CC1` [(2S) N-cyclopropyl-N-[1-(4-methyl-2-methylaminopentanoyl)-piperidin-4-yl]-3-fluorobenzenesulfonamide], the IC50 came to 4.66 µM.

In the case of `CN[C@@H](CC(C)C)C(=O)N1CCC(N(C2CC2)S(=O)(=O)c2cccc(OC)c2)CC1` [(2S) N-cyclopropyl-N-[1-(4-methyl-2-methylaminopentanoyl)-piperidin-4-yl]-3-methoxybenzenesulfonamide], the IC50 amounted to 7.29 µM.

As to `CN[C@@H](CC(C)C)C(=O)N1CCC(N(C2CC2)S(=O)(=O)c2cccc(C)c2)CC1` [(2S) N-cyclopropyl-N-[1-(4-methyl-2-methylaminopentanoyl)-piperidin-4-yl]-3-methylbenzenesulfonamide], the IC50 worked out at 8.29 µM.

On to `CN[C@@H](CC(C)C)C(=O)N1CCC(N(C2CC2)S(=O)(=O)c2cccc([N+](=O)[O-])c2)CC1` [(2S) N-cyclopropyl-N-[1-(4-methyl-2-methylaminopentanoyl)-piperidin-4-yl]-3-nitrobenzenesulfonamide], for which the IC50 was determined as 3.62 µM.

Regarding `CN[C@@H](CC(C)C)C(=O)N1CCC(N(CCC(C)C)S(=O)(=O)c2cccc(C(F)(F)F)c2)CC1` [(2S) N-i-pentyl-N-[1-(4-methyl-2-methylaminopentanoyl)piperidin-4-yl]-3-trifluoromethylbenzenesulfonamide], the IC50 worked out at 1.26 µM.

With `CCCC=CC(=O)N1CCC(N(C2CC2)S(=O)(=O)c2cccc(C(F)(F)F)c2)CC1` [N-Cyclopropyl-N-(1-hex-2-enoyl-piperidin-4-yl)-3-trifluoromethylbenzenesulfonamide], the IC50 is 1.21 µM.

For the molecule `O=C(C1Cc2ccccc2CN1)N1CCC(N(C2CC2)S(=O)(=O)c2cccc(C(F)(F)F)c2)CC1` (stereo not shown) [N-Cyclopropyl-N-[1-(1,2,3,4-tetrahydroisoquinolin-3-carbonyl)piperidin-4-yl]-3-trifluoromethylbenzenesulfonamide], the IC50 was found to be 1.58 µM.

On to `CN1CCCC1C(=O)N1CCC(N(C2CC2)S(=O)(=O)c2cccc(C(F)(F)F)c2)CC1` (stereo not shown) [N-Cyclopropyl-N-[1-(N-methylpyrrolidin-2-carbonyl)piperidin-4-yl]-3-trifluoromethylbenzenesulfonamide], for which the IC50 stood at 1.38 µM.

In the case of `NC1(C(=O)N2CCC(N(C3CC3)S(=O)(=O)c3cccc(C(F)(F)F)c3)CC2)CCCC1` [N-[1-(1-Aminocyclopentan-1-carbonyl)piperidin-4-yl]-N-cyclopropyl-3-trifluoromethylbenzenesulfonamide], the IC50 was found to be 1.08 µM.

For the molecule `O=C(CCC(=O)N1CCC(N(C2CC2)S(=O)(=O)c2ccccc2)CC1)c1ccc(F)cc1` [N-cyclopropyl-N-{1-[4-(4-fluorophenyl)-4-oxobutanoyl]piperidin-4-yl}benzenesulfonamide], the IC50 stood at 6.21 µM.
